Experimental data published in patent publication US4914204A, “4-Pentafluorophenoxypiperidines” (priority 1988, dated 1990).
Structures can show the parent of a compound that is named as a salt. Where two headings read alike, the source gives them in different places.

Experiments:
[1] = test system: spontaneous hypertensive rat; assay: antihypertensive activity, indirect tail cuff method; format: in vivo; details: 50 mg/kg p.o.; measured on third day
Protocol: The compounds of this invention are also useful as antihypertensive agents due to their ability to depress blood pressure in mammals. Antihypertensive activity is measured in the spontaneous hypertensive rat by the indirect tail cuff method described in "Methods in Pharmacology", A. Schwartz, Ed., Vol. I, Appleton-Century Crofts, New York, N.Y., 1971, p. 135. In this procedure a group of five animals is treated orally for three days with the test compound in relation to a control group of the same number. The drop in blood pressure is measured on the third day following administration. The antihypertensive activities of representative compounds, expressed as a decrease in mean arterial blood pressure (in mm Hg), are given in Table 3 along with the activity of a standard compound.

[2] = test system: mice; assay: phenyl-p-benzoquinone writhing assay (analgesic activity); format: in vivo, mice (male, Charles River, CD-1); details: for % Inhibition of writhing: screening dose of 20 mg/kg, s.c.; for ED50: Mus musculus, sc, footnote 1 of Table 1, read-out: Analgesic Activity, ED50 (calculated dose effecting 50% inhibition of writhing)
Protocol: The procedure employed to determine analgetic utility is a modification of the phenyl-p-benzoquinone writhing assay in mice, a standard assay for analgesia [Proc. Soc. […] Pursuant to the modified procedure phenyl-p-benzoquinone (Eastman, 12.5 mg) is dissolved in 5 ml of 95% ethanol and the solution is diluted to a total volume of 100 ml with distilled water. The solution is administered to the subject mice intraperitoneally at a dose of 10 ml per kg of body weight. A characteristic "writhe" an inward rotation of one or more feet with twisting and turning of the trunk, drawing in of the abdominal wall, lordosis and arching of the back, is produced.
A total of 28 male mice (Charles River, CD-1), weighing 18 to 30 grams, are employed for a time response. The subject animals receive food and water ad libitum. Test compounds are dissolved in distilled water, or suspended in distilled water containing one drop of a suitable surfactant, such as Tween-80.
Four groups of five animals (20 animals) are given the test compound subcutaneously (s.c.) or orally (p.o.) at 15, 30, 45 and 60 minutes prior to administration of the phenyl-p-quinone. A control group (2 animals per group) receive an equal volume of the vehicle. After the administration of the phenyl-p-quinone, the mice are placed separately in one liter beakers, and after five minutes, are observed for ten minutes. The number of writhes for each animal is recorded. The following formula is used to compute the percent inhibition: [formula]
The time period with the greatest percent of inhibition is considered the peak time.

[3] = test system: mice; assay: metrazol lethality assay (MTZ), anticonvulsant activity; format: in vivo, mice (male, Charles River, CD-1)
[4] = test system: rats; assay: L-5-hydroxytryptophan (5-HTP) potentiation assay (antidepressant activity); format: in vivo, male Wistar rats
Protocol: Antidepressant activity is determined by the L-5-hydroxytryptophan potentiation assay in rats described in Brit.
In the L-5-hydroxytryptophan potentiation assay groups of six male Wistar rats (150-200 grams each) are used. Pargyline hydrochloride is prepared and administered four hours before testing by subcutaneous injection at 75 mg/kg in 1% saline and a dosage volume of 1.0 ml/kg. Thirty minutes before testing, drugs are prepared and dosed using distilled water and, if insoluble, a suitable surfactant is added. Control groups receive vehicle. Drugs are routinely administered intraperitoneally at a dosage volume of 10 ml/kg. L-5-hydroxytryptophan (5-HTP) is prepared at 1.0 mg/kg in distilled water and is administered intraperioneally in volumes proportional to 10 ml/kg.
Potentiation is expressed as normalized percent potentiation relative to vehicle control. ED50 values (the calculated dose at which the test compound effects a 50% inhibition of continuous forelimb clonus) and 95% confidence limits are determined by linear analysis.

[5] = test system: mice; assay: tetrabenazine (TBZ) induced ptosis assay (antidepressant activity); format: in vivo, mice (male, Charles River, CD-1)
Protocol: In the tetrabenazine induced ptosis assay, male mice (Charles River, CD-1), weighing 20 to 39 g, are used in test groups of five animals. Test compounds are dissolved, or suspended with 1 drop of Tween-80, in distilled water and administered to the animals in volumes of 10 cc per kg of body weight. Tetrabenazine methanesulfonate (76.78% as the free base) is dissolved in distilled water and the concentration of the solution is adjusted so that the dose, administered intraperitoneally (i.p.) to the animals, is 40 mg of tetrabenazine base per kg of animal body weight.
The test compound is administered intraperitoneally (i.p.) or perorally (p.o.) to the subject animals, and the tetrabenazine solution is administered 30 minutes or 60 minutes, respectively, thereafter. Tetrabenazine solution and the solvent used to dissolve or suspend the test compounds are administered by the same route and at the same intervals as the test compounds to a control group.
The subject animals are placed in individual plastic containers (101/2"×8"×6") thirty (i.p.) and sixty minutes (p.o.) after administration of the tetrabenazine solution, and one minute thereafter, the animals are scored for ptosis on the following scale:
The total score for each group of 5 animals will therefore vary from 0 to 20; these scores are used as the indications of the activity of the test compound.
The vehicle-control group score is used as a determination of the validity of each test.
For calculation of the ED50 value of a test compound; i.e., the calculated dose at which the test compound effects a 50% inhibition of tetrabenazine-induced ptosis, four or five doses are administered, and only vehicle-control scores of 17 to 20 are acceptable. A linear-regression analysis is used to estimate ED50 values and 95% confidence limits.

[6] = Rattus norvegicus, ip; read-out: 5-HTP ED50
[7] = Rattus norvegicus, ip, read-out: 5-HTP ED50
[8] = Mus musculus, ip, read-out: TBZ ED50
[9] = Mus musculus, ip; read-out: TBZ ED50

| Structure (SMILES) | % Inhibition of writhing [2] [%] | ED50 [4, 6] [mg/kg] | ED50 [5, 9] [mg/kg] | further results |
| --- | --- | --- | --- | --- |
| Fc1c(F)c(F)c(OC2(c3ccccc3)CCN(Cc3ccccc3)CC2)c(F)c1F [1-Benzyl-4-(2,3,4,5,6-pentafluorophenoxy)-4-phenyl piperidine] | – | – | – | SHR mm dec. in blood pressure (decrease in mean arterial blood pressure) [1]: 40 mm Hg |
| N#CN1CCC(Oc2c(F)c(F)c(F)c(F)c2F)(c2ccccc2)CC1 [1-Cyano-4-(2,3,4,5,6-pentafluorophenoxy)-4-phenyl piperidine] | 52 | – | – | ED50 ([3]; Mus musculus, po): 55.2 mg/kg |
| Cl.Fc1ccc2c(CCCN3CCC(Oc4c(F)c(F)c(F)c(F)c4F)CC3)noc2c1 [1-[(6-Fluoro-1,2-benzisoxazol-3-yl)propyl]-4-(2,3,4,5,6-pentafluorophenoxy)piperidine hydrochloride] | – | – | – | SHR mm dec. in blood pressure (decrease in mean arterial blood pressure) [1]: 62 mm Hg |
| CP(C)(=O)CN1CCC(Oc2c(F)c(F)c(F)c(F)c2F)CC1 [1-[(Dimethylphosphinyl)methyl]-4-(2,3,4,5,6-pentafluorophenoxy)piperdine] | – | 9.1 | – | – |
| CN1CCC(Oc2c(F)c(F)c(F)c(F)c2F)(c2ccccc2)CC1.Cl [1-methyl-4-(2,3,4,5,6-pentafluorophenoxy)-4-phenylpiperidine hydrochloride] | – | – | – | ED50 [4, 7]: 8.1 mg/kg; ED50 [5, 8]: 1.3 mg/kg |
| CN1CCC(Oc2c(F)c(F)c(F)c(F)c2F)CC1 [1-methyl-4-(2,3,4,5,6-pentafluorophenoxy)piperidine] | – | 4.7 | 4.7 | – |
| COc1ccccc1N1CCN(CCCCN2CCC(Oc3c(F)c(F)c(F)c(F)c3F)CC2)CC1 [1-{4-[1-[4-(2-Methoxyphenyl)piperazin-1-yl]butyl]}-4-(2,3,4,5,6-pentafluorophenoxy)piperidine dioxalate] | – | – | – | ED50 [2]: 19 mg/kg |
| Fc1c(F)c(F)c(OC2(c3ccccc3)CCNCC2)c(F)c1F.O=C(O)/C=C\C(=O)O [4-(2,3,4,5,6-Pentafluorophenoxy)-4-phenylpiperidine maleate] | – | 14.5 | 1 | – |
| Cl.Fc1c(F)c(F)c(OC2CCNCC2)c(F)c1F [4-(2,3,4,5,6-Pentafluorophenoxy)piperidine hydrochloride] | – | – | – | ED50 [2]: 20 mg/kg |
| CN1CCC(Oc2c(F)c(F)c(F)c(F)c2F)(c2ccccc2F)CC1.O=C(O)C(=O)O [4-(2-Fluorophenyl)-1-methyl-4-(2,3,4,5,6-pentafluorophenoxy) piperidine oxalate] | – | – | – | ED50 [5, 8]: 3.8 mg/kg |
| Fc1ccccc1C1(Oc2c(F)c(F)c(F)c(F)c2F)CCNCC1.O=C(O)/C=C\C(=O)O [4-(2-Fluorophenyl)-4-(2,3,4,5,6-pentafluorophenoxy)piperidine maleate] | – | < 20 | 6.4 | – |
| CN1CCC(Oc2c(F)c(F)c(F)c(F)c2F)(c2ccc(Cl)cc2)CC1.O=C(O)/C=C/C(=O)O [4-(4-Chlorophenyl)-1-methyl-4-(2,3,4,5,6-pentafluorophenoxy)p iperidine fumarate] | – | – | – | ED50 [4, 7]: 11.9 mg/kg; ED50 [5, 8]: 38.9 mg/kg |
| Fc1c(F)c(F)c(OC2(c3ccc(Cl)cc3)CCNCC2)c(F)c1F.O=C(O)/C=C/C(=O)O [4-(4-Chlorophenyl)-4-(2,3,4,5,6-pentafluorophenoxy)piperidine fumarate] | 66 | 37 | 20 | – |
| CN1CCC(Oc2c(F)c(F)c(F)c(F)c2F)(c2ccc(F)cc2)CC1.Cl [4-(4-Fluorophenyl)-1-methyl-4-(2,3,4,5,6-pentafluorophenoxy)p iperidine hydrochloride] | 49 | – | – | ED50 [4, 7]: 7 mg/kg; Percent inhibition of Metrazol lethality ([3]; 30 mg/kg i.p., footnote 2 of Table 2): 80%; ED50 [5, 8]: 5.4 mg/kg |
| Cl.Fc1ccc(C2(Oc3c(F)c(F)c(F)c(F)c3F)CCNCC2)cc1 [4-(4-Fluorophenyl)-4-(2,3,4,5,6-pentafluorophenoxy)piperidine hydrochloride] | 58 | < 10 | 4.8 | – |
| COc1ccc(C2(Oc3c(F)c(F)c(F)c(F)c3F)CCN(C)CC2)cc1.Cl [4-(4-Methoxyphenyl)-1-methyl-4-(2,3,4,5,6-pentafluorophenoxy) piperidine hydrochloride] | 53 | – | – | – |
| Cc1ccc(C2(Oc3c(F)c(F)c(F)c(F)c3F)CCNCC2)cc1.O=C(O)/C=C\C(=O)O [4-(4-Methylphenyl)-4-(2,3,4,5,6-pentafluorophenoxy)piperidine maleate] | 56 | 14.5 | 8.3 | – |
| Cc1ccc(C2(Oc3c(F)c(F)c(F)c(F)c3F)CCN(C)CC2)cc1 [(4-(4-Methylphenyl)-1-methyl-4-(2,3,4,5,6-pentafluorophenoxy)piperidine hydrochloride] | – | – | – | ED50 [5, 8]: 7 mg/kg |
| CN(C)CCC=C1c2ccccc2CCc2ccccc21 [amitriptyline, reference compound] | – | 7.1 | 1.5 | – |
| N=C(N)NCCN1CCCCCCC1 [guanethidine, reference compound] | – | – | – | SHR mm dec. in blood pressure (decrease in mean arterial blood pressure) [1]: 20 mm Hg |
